{
  "source": "patent US9560876B2",
  "about": "“Acylamino acid compounds and food preparations containing same” (Nestec S.A., priority 2008, dated 2017)",
  "molecular_target": "human TRPA1 (Homo sapiens, UniProt O75762)",
  "sequence (O75762 whole entry)": "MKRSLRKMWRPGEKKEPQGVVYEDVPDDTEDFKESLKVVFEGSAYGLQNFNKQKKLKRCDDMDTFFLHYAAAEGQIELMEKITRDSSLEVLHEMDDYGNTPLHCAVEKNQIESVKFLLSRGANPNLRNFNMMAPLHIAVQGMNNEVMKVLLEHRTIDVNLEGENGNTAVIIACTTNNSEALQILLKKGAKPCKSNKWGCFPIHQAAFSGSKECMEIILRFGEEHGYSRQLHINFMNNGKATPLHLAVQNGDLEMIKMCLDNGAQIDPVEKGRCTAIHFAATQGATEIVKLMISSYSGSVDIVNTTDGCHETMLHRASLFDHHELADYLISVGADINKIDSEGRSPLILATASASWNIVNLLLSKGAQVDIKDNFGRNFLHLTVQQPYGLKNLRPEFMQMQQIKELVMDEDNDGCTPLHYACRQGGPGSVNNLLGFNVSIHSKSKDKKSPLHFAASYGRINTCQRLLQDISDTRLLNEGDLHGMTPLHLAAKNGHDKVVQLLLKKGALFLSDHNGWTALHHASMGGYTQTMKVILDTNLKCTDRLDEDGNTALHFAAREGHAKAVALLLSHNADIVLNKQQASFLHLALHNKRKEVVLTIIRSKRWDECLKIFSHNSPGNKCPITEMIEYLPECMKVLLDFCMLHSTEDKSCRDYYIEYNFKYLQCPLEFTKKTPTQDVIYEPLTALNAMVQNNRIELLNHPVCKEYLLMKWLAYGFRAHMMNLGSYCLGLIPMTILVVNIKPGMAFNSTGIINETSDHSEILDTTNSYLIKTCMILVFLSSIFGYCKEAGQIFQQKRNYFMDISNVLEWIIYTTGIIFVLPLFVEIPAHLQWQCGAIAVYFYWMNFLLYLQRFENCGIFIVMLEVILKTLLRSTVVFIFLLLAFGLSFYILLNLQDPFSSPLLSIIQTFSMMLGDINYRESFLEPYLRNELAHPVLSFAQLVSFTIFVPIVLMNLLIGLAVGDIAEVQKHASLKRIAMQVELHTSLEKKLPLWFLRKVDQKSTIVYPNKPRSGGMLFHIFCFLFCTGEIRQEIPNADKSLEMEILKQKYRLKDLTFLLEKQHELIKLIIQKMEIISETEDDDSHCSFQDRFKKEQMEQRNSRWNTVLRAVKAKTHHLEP",
  "assay": "Intracellular calcium [Ca2+]i flux in HEK 293 cells stably expressing TRPA1 (FLEXstation, Fura-2/AM)",
  "format": "cell-based",
  "settings": "saturating concentration",
  "protocol": "Cloning and Expression of Human TRPV1 and TRPA1 Receptors in HEK 293 Cells: Cloning and expression of these receptors was performed following previously published protocols. Briefly, cloned human TRPV1 cDNA was obtained from RZPD (Germany) and hTRPA1 cDNA from OriGene (Rockville, Md.). Genes were subcloned into pcDNA5/FRT (Invitrogen, Carlsbad, Calif.) to generate stable cell lines using the Flp-In system (Invitrogen) after sequencing verification.\nMeasurement of Intracellular Calcium Levels [Ca2+]i and Membrane Potential Variation in HEK 293 Cells Using a Fluorescent Plate Reader: Cell lines stably expressing TRP channels were seeded into 96-well plates previously coated with poly-D-lysine. […] [Ca2+]i fluxes from a homogeneous cell population (approximately 100000 cells) were measured as changes in fluorescence intensity when stimulated with agonists using a FLEXstation (Molecular Devices). […]\nData Analysis: Responses of molecules in HEK 293 cells were expressed as a percentage of maximum responses evoked by 150 μM cinnamaldehyde for TRPA1 and 1 μM capsaicin for TRPV1 (these concentrations were assessed independently to be saturating under these conditions). For all experiments, calcium fluxes were measured as changes in fluorescence intensity, before and after the addition of agonists. […] Data obtained from this study were expressed as mean SEM. […]",
  "data": [
    {"smiles": "CCC=CCC=CCC=CCCCCCCCC(=O)NC(C)C(=O)O", "note": "(centres unmarked) [K]", "values": [
      {"measurement": "selectivity of activation, TRPA1 versus TRPV1", "setting": "comparison of TRPA1 and TRPV1 activation in HEK 293 cells", "value": "purely activating TRPA1"},
      {"measurement": "maximum activation on TRPA1", "setting": "responses expressed as percentage of maximum response evoked by 150 μM cinnamaldehyde, FIG. 1", "value": "strong stimulating effect"}
    ]}
  ]
}
